Experimental data: ChEMBL document CHEMBL1201862, “PubChem BioAssay data set” (2004)
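Step 1: Grow cells in 96-well plates. Step 2: Expose to compound for 48 hours at 5 concentrations. Step 3: Interpolate endpoints linearly; if unreached, use highest concentration. GI50 = concentration required for 50% inhibition of growth.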 Active and inactive are the calls of the source. No stated cut-off is given here; in the data, active = GI50 up to about 1.1 µM and inactive = higher.

Experiments:
Assay in all cases: NCI-60 cell line screen, 48 h
OVCAR-5 = tested on: OVCAR-5
NCI-H460 = tested on: NCI-H460
A498 = tested on: A498
HCT-15 = tested on: HCT-15
HCC 2998 = tested on: HCC 2998
HL-60 = tested on: HL-60
CCRF-CEM = tested on: CCRF-CEM
MDA-MB-435 = tested on: MDA-MB-435
IGROV-1 = tested on: IGROV-1
UACC-62 = tested on: UACC-62
RPMI-8226 = tested on: RPMI-8226
SW-620 = tested on: SW-620
DU-145 = tested on: DU-145
MOLT-4 = tested on: MOLT-4
SK-MEL-2 = tested on: SK-MEL-2
SK-MEL-5 = tested on: SK-MEL-5
OVCAR-3 = tested on: OVCAR-3
NCI-H23 = tested on: NCI-H23
KM12 = tested on: KM12
Malme-3M = tested on: Malme-3M

Row | SMILES | GI50 (OVCAR-5) | GI50 (NCI-H460) | GI50 (A498) | GI50 (HCT-15) [µM] | GI50 (HCC 2998) | GI50 (HL-60) | GI50 (CCRF-CEM) | GI50 (MDA-MB-435) | GI50 (IGROV-1) | GI50 (UACC-62) | GI50 (RPMI-8226) | GI50 (SW-620) | GI50 (DU-145) | GI50 (MOLT-4) | GI50 (SK-MEL-2) | GI50 (SK-MEL-5) | GI50 (OVCAR-3) | GI50 (NCI-H23) | GI50 (KM12) | GI50 (Malme-3M)
1 | O=C1N[C@@H]2c3c(Br)sc(Br)c3C(=O)[C@@H]2N1 | 17.2 µM (inactive) | 6.44 µM (inactive) | 17.3 µM (inactive) | 3.16 | 1.81 µM (inactive) | 2.14 µM (inactive) | 0.678 µM (active) | 2.1 µM (inactive) | 2.26 µM (inactive) | 4.73 µM (inactive) | 3.05 µM (inactive) | 1.77 µM (inactive) | 5.86 µM (inactive) | 2.76 µM (inactive) | 4.82 µM (inactive) | 9.29 µM (inactive) | 2.59 µM (inactive) | 4.43 µM (inactive) | 5.28 µM (inactive) | 4.52 µM (inactive)
2 | CC(=O)N(C(=O)CC(=O)N1N=C(c2ccccc2)C(/N=N/c2ccccc2[N+](=O)[O-])C1=O)c1ccc(Cl)cc1 (stereo not given) | > 10 µM (inactive) | > 10 µM (inactive) | > 10 µM (inactive) | > 10 | > 10 µM (inactive) | > 10 µM (inactive) | > 10 µM (inactive) | > 10 µM (inactive) | > 10 µM (inactive) | > 10 µM (inactive) | > 10 µM (inactive) | > 10 µM (inactive) | > 10 µM (inactive) | > 10 µM (inactive) | > 10 µM (inactive) | > 10 µM (inactive) | > 10 µM (inactive) | > 10 µM (inactive) | > 10 µM (inactive) | > 10 µM (inactive)
3 | c1ccc(-c2cc(-c3cc(-c4ccccc4)no3)on2)cc1 | > 100 µM (inactive) | 45.1 µM (inactive) | > 100 µM (inactive) | > 100 | > 100 µM (inactive) | > 100 µM (inactive) | 27.4 µM (inactive) | > 100 µM (inactive) | 35.2 µM (inactive) | > 100 µM (inactive) | > 100 µM (inactive) | > 100 µM (inactive) | > 100 µM (inactive) | 25.2 µM (inactive) | > 100 µM (inactive) | > 100 µM (inactive) | 39.5 µM (inactive) | 49.1 µM (inactive) | > 100 µM (inactive) | > 100 µM (inactive)
4 | CCCCn1cc(C(=O)O)c(=O)c2c3sccc3ccc21 | > 100 µM (inactive) | > 100 µM (inactive) | > 100 µM (inactive) | 47 | > 100 µM (inactive) | 34.8 µM (inactive) | > 100 µM (inactive) | > 100 µM (inactive) | > 100 µM (inactive) | > 100 µM (inactive) | > 100 µM (inactive) | > 100 µM (inactive) | > 100 µM (inactive) | > 100 µM (inactive) | > 100 µM (inactive) | > 100 µM (inactive) | > 100 µM (inactive) | > 100 µM (inactive) | > 100 µM (inactive) | > 100 µM (inactive)
5 | Cc1ccc(S(=O)(=O)N2CCNCCN(S(=O)(=O)c3ccc(C)cc3)CCN(S(=O)(=O)c3ccc(C)cc3)CC2)cc1 | > 100 µM (inactive) | > 100 µM (inactive) | > 100 µM (inactive) | > 100 | > 100 µM (inactive) | > 100 µM (inactive) | > 100 µM (inactive) | > 100 µM (inactive) | > 100 µM (inactive) | > 100 µM (inactive) | > 100 µM (inactive) | > 100 µM (inactive) | > 100 µM (inactive) | > 100 µM (inactive) | > 100 µM (inactive) | > 100 µM (inactive) | > 100 µM (inactive) | > 100 µM (inactive) | > 100 µM (inactive) | > 100 µM (inactive)
6 | O=C(C1OC1c1ccc(O)cc1)C12CC3CC(CC(C3)C1)C2 (stereo not given) | > 100 µM (inactive) | > 80.9 µM (inactive) | > 69.8 µM (inactive) | 53.2 | > 100 µM (inactive) | 10.9 µM (inactive) | 5.92 µM (inactive) | > 40.7 µM (inactive) | > 86.1 µM (inactive) | 40.1 µM (inactive) | 27 µM (inactive) | 27.7 µM (inactive) | > 100 µM (inactive) | 17.8 µM (inactive) | > 100 µM (inactive) | 61.7 µM (inactive) | 45.1 µM (inactive) | 97.9 µM (inactive) | 98.9 µM (inactive) | 45.1 µM (inactive)
7 | COC(=O)C1=C(OC(=O)/C(=C/c2ccccc2)c2ccc([N+](=O)[O-])cc2)C(C(=O)OC)[C@@]2(O)[C@@H](C(=O)OC)[C@H](C)C[C@@H]1[C@@H]2C(=O)OC (stereo not given in full) | > 100 µM (inactive) | > 100 µM (inactive) | > 100 µM (inactive) | > 100 | > 100 µM (inactive) | 78 µM (inactive) | 12.9 µM (inactive) | > 100 µM (inactive) | > 100 µM (inactive) | > 100 µM (inactive) | 3.71 µM (inactive) | > 100 µM (inactive) | > 100 µM (inactive) | 3.53 µM (inactive) | > 100 µM (inactive) | > 100 µM (inactive) | > 100 µM (inactive) | > 100 µM (inactive) | > 100 µM (inactive) | > 100 µM (inactive)
8 | O=C1Nc2ccccc2NC1C1OC(c2ccccc2)=CC1=O (stereo not given) | > 100 µM (inactive) | > 100 µM (inactive) | > 100 µM (inactive) | > 100 | > 100 µM (inactive) | > 100 µM (inactive) | > 100 µM (inactive) | > 100 µM (inactive) | > 100 µM (inactive) | > 100 µM (inactive) | > 100 µM (inactive) | > 100 µM (inactive) | > 100 µM (inactive) | > 100 µM (inactive) | > 100 µM (inactive) | > 100 µM (inactive) | > 100 µM (inactive) | > 100 µM (inactive) | > 100 µM (inactive) | > 100 µM (inactive)
9 | O=c1[nH]c(=O)n(C2CC(O)C(CS)O2)cc1F (stereo not given) | > 61.9 µM (inactive) | 6.87 µM (inactive) | 26.6 µM (inactive) | 74.5 | 4.61 µM (inactive) | > 63.8 µM (inactive) | 30.5 µM (inactive) | > 92.7 µM (inactive) | > 100 µM (inactive) | 65.2 µM (inactive) | 67 µM (inactive) | > 86.1 µM (inactive) | 61.2 µM (inactive) | 62.5 µM (inactive) | > 100 µM (inactive) | 70.1 µM (inactive) | > 92.3 µM (inactive) | > 94.4 µM (inactive) | 99.1 µM (inactive) | 64.7 µM (inactive)
10 | COc1ccc(C(c2ccc(OC)cc2)N2C(=O)CCC2C(=O)O)cc1 (stereo not given) | > 100 µM (inactive) | > 100 µM (inactive) | > 100 µM (inactive) | > 100 | > 100 µM (inactive) | > 100 µM (inactive) | > 100 µM (inactive) | > 100 µM (inactive) | > 100 µM (inactive) | > 100 µM (inactive) | > 100 µM (inactive) | > 100 µM (inactive) | > 100 µM (inactive) | > 100 µM (inactive) | > 100 µM (inactive) | > 100 µM (inactive) | > 100 µM (inactive) | > 100 µM (inactive) | > 100 µM (inactive) | > 100 µM (inactive)
11 | CCOC(=O)C1(C(=O)OCC)C[C@H]2CON=C2[C@@H]1c1ccc(C(F)(F)F)cc1 | 72.6 µM (inactive) | 42.9 µM (inactive) | 53.1 µM (inactive) | 38.6 | 31.9 µM (inactive) | 27.7 µM (inactive) | 7.96 µM (inactive) | 38.6 µM (inactive) | 12.5 µM (inactive) | 96.2 µM (inactive) | 26.5 µM (inactive) | 68.1 µM (inactive) | > 100 µM (inactive) | 25.9 µM (inactive) | 62.2 µM (inactive) | 30.6 µM (inactive) | 40.1 µM (inactive) | 58.7 µM (inactive) | 82.6 µM (inactive) | > 100 µM (inactive)
12 | Oc1cc(Cc2ccccc2)c(Cc2ccccc2)cc1O | > 10 µM (inactive) | > 10 µM (inactive) | > 10 µM (inactive) | > 10 | > 10 µM (inactive) | > 10 µM (inactive) | > 10 µM (inactive) | > 10 µM (inactive) | > 10 µM (inactive) | > 10 µM (inactive) | > 10 µM (inactive) | > 10 µM (inactive) | > 10 µM (inactive) | > 10 µM (inactive) | > 10 µM (inactive) | > 10 µM (inactive) | > 10 µM (inactive) | > 10 µM (inactive) | > 10 µM (inactive) | > 10 µM (inactive)
